In patent US8865698B2, “Method of treatment using substituted pyrazolo[1,5-a]pyrimidine compounds” (Array BioPharma Inc., priority 2008, dated 2014):

Target: histidine-tagged recombinant human TrkA, cytoplasmic domain (Homo sapiens (Human), UniProt P04629)
Test: TrkA ELISA Assay
Assay type: biochemical
Details: 2.5 nM TrkA, 500 μM ATP, 25 minutes; read-out: TrkA Elisa Enzyme IC50
Experimental: An enzyme-linked immunosorbant assay (ELISA) was used to assess TrkA kinase activity in the presence of inhibitors. Immulon 4HBX 384-well microtiter plates (Thermo part #8755) were coated with a 0.025 mg/mL solution of poly (Glu, Ala, Tyr; 6:3:1; Sigma P3899). Various concentrations of test compound, 2.5 nM TrkA (Invitrogen Corp., histidine-tagged recombinant human TrkA, cytoplasmic domain), and 500 μM ATP were incubated for 25 minutes at ambient temperature in the coated plates while shaking. The assay buffer consisted of 25 mM MOPS pH 7.5, 0.005% (v/v) Triton X-100 and 5 mM MgCl2. The reaction mixture was removed from the plate by washing with PBS containing 0.1% (v/v) Tween 20. The phosphorylated reaction product was detected using 0.2 μg/mL of a phosphotyrosine specific monoclonal antibody (clone PY20) conjugated to horseradish peroxidase in conjunction with the TMB Peroxidase Substrate System (KPL). After the addition of 1M phosphoric acid, the chromogenic substrate color intensity was quantitated via absorbance at 450 nm. IC50 values were calculated using either a 4 or 5-parameter logistic curve fit.

Sequence of histidine-tagged recombinant human TrkA, cytoplasmic domain (P04629 440-796): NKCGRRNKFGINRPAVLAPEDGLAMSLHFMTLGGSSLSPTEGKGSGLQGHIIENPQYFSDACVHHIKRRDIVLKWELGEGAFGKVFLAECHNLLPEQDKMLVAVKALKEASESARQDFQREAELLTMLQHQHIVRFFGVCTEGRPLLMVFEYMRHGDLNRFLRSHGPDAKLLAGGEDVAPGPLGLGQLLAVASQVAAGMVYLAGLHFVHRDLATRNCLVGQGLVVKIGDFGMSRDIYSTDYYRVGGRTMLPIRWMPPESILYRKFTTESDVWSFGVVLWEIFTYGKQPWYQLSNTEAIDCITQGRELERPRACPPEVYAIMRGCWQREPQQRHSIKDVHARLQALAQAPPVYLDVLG

Row | Structure (SMILES) | IC50 [nM]
1 | Cc1cccnc1C(=O)Nc1cnn2ccc(N3CCC[C@@H]3c3cc(F)ccc3F)nc12 [Example 63, (R)—N-(5-(2-(2,5-difluorophenyl)pyrrolidin-1-yl)pyrazolo[1,5-a]pyrimidin-3-yl)-3-methylpicolinamide] | 1.7
2 | O=C(Nc1cnn2ccc(N3CCC[C@@H]3c3cc(F)ccc3F)nc12)C(=O)NC1CC1 [Example 100, (R)—N^1-cyclopropyl-N2-(5-(2-(2,5-difluorophenyl)pyrrolidin-1-yl)pyrazolo[1,5-a]pyrimidin-3-yl)oxalamide] | 15.8
3 | O=C(Nc1cnn2ccc(N3CCC[C@@H]3c3cc(F)ccc3F)nc12)c1cccc(Cl)n1 [Example 71, (R)-6-chloro-N-(5-(2-(2,5-difluorophenyl)pyrrolidin-1-yl)pyrazolo[1,5-a]pyrimidin-3-yl)picolinamide] | 3.5
4 | Cc1cccc(C(=O)Nc2cnn3ccc(N4CCC[C@@H]4c4cc(F)ccc4F)nc23)n1 [Example 60, (R)—N-(5-(2-(2,5-difluorophenyl)pyrrolidin-1-yl)pyrazolo[1,5-a]pyrimidin-3-yl)-6-methylpicolinamide] | 4.2
5 | CC(C)(C)NC(=O)Nc1cnn2ccc(N3CCC[C@@H]3c3cc(F)ccc3F)nc12 [Example 3, (R)-1-tert-butyl-3-(5-(2-(2,5-difluorophenyl)pyrrolidin-1-yl)pyrazolo[1,5-a]pyrimidin-3-yl)urea] | 22.2
6 | CN(C)C(=O)C(=O)Nc1cnn2ccc(N3CCC[C@@H]3c3cc(F)ccc3F)nc12 [Example 97, (R)—N^1-(5-(2-(2,5-difluorophenyl)pyrrolidin-1-yl)pyrazolo[1,5-a]pyrimidin-3-yl)-N^2,N^2-dimethyloxalamide] | 47.5
7 | O=C(Nc1cnn2ccc(N3CCC[C@@H]3c3cc(F)ccc3F)nc12)C1(C(F)(F)F)CC1 [Example 51, (R)—N-(5-(2-(2,5-difluorophenyl)pyrrolidin-1-yl)pyrazolo[1,5-a]pyrimidin-3-yl)-1-(trifluoromethyl)cyclopropanecarboxamide] | 5.2
8 | CC(C)Nc1nc(C(=O)Nc2cnn3ccc(N4CCC[C@@H]4c4cc(F)ccc4F)nc23)cs1 [Example 55, (R)—N-(5-(2-(2,5-difluorophenyl)pyrrolidin-1-yl)pyrazolo[1,5-a]pyrimidin-3-yl)-2-(isopropylamino)thiazole-4-carboxamide] | 3.1
9 | O=C(O)C(=O)Nc1cnn2ccc(N3CCC[C@@H]3c3cc(F)ccc3F)nc12 [Example 105, (R)-2-(5-(2-(2,5-difluorophenyl)pyrrolidin-1-yl)pyrazolo[1,5-a]pyrimidin-3-ylamino)-2-oxoacetic acid] | 4.7
10 | N#CC1(C(=O)Nc2cnn3ccc(N4CCC[C@@H]4c4cc(F)ccc4F)nc23)CC1 [Example 52, (R)-1-cyano-N-(5-(2-(2,5-difluorophenyl)pyrrolidin-1-yl)pyrazolo[1,5-a]pyrimidin-3-yl)cyclopropanecarboxamide] | 4.2
11 | O=C(Nc1cnn2ccc(N3CCC[C@@H]3c3cccc(F)c3)nc12)c1ccccn1 [Example 68, (R)—N-(5-(2-(3-fluorophenyl)pyrrolidin-1-yl)pyrazolo[1,5-a]pyrimidin-3-yl)picolinamide] | 4
12 | CC(C)(C)OC(=O)N1CCC(C)(C(=O)Nc2cnn3ccc(N4CCC[C@@H]4c4cc(F)ccc4Cl)nc23)CC1 [Example 48, (R)-tert-butyl 4-(5-(2-(2-chloro-5-fluorophenyl)pyrrolidin-1-yl)pyrazolo[1,5-a]pyrimidin-3-ylcarbamoyl)-4-methylpiperidine-1-carboxylate] | 15.3
13 | CNC(=O)C(=O)Nc1cnn2ccc(N3CCC[C@@H]3c3cc(F)ccc3F)nc12 [Example 98, (R)—N^1-(5-(2-(2,5-difluorophenyl)pyrrolidin-1-yl)pyrazolo[1,5-a]pyrimidin-3-yl)-N^2-methyloxalamide] | 7.65
14 | CC(C)(F)C(=O)Nc1cnn2ccc(N3CCC[C@@H]3c3cc(F)ccc3F)nc12 [Example 54, (R)—N-(5-(2-(2,5-difluorophenyl)pyrrolidin-1-yl)pyrazolo[1,5-a]pyrimidin-3-yl)-2-fluoro-2-methylpropanamide] | 14.2
15 | CNC(C)(C)C(=O)Nc1cnn2ccc(N3CCC[C@@H]3c3cc(F)ccc3F)nc12 [Example 66, (R)—N-(5-(2-(2,5-difluorophenyl)pyrrolidin-1-yl)pyrazolo[1,5-a]pyrimidin-3-yl)-2-methyl-2-(methylamino)propanamide] | 52.5
16 | CC(C)(CO)C(=O)Nc1cnn2ccc(N3CCC[C@@H]3c3cc(F)ccc3F)nc12 [Example 64, (R)—N-(5-(2-(2,5-difluorophenyl)pyrrolidin-1-yl)pyrazolo[1,5-a]pyrimidin-3-yl)-3-hydroxy-2,2-dimethylpropanamide] | 7.5
17 | O=C(Nc1ccc(Cl)cc1)Nc1cnn2ccc(N3CCC[C@@H]3c3cc(F)ccc3F)nc12 [Example 19, (R)-1-(4-chlorophenyl)-3-(5-(2-(2,5-difluorophenyl)pyrrolidin-1-yl)pyrazolo[1,5-a]pyrimidin-3-yl)urea] | 10.1
18 | O=C(Nc1cnn2ccc(N3CCC[C@@H]3c3cc(F)ccc3F)nc12)c1cc(Cl)ccn1 [Example 62, (R)-4-chloro-N-(5-(2-(2,5-difluorophenyl)pyrrolidin-1-yl)pyrazolo[1,5-a]pyrimidin-3-yl)picolinamide] | 4

Continued, values first:

Row | IC50 [nM] | Structure (SMILES)
19 | 116 | O=C(Nc1cnn2ccc(N3CCC[C@@H]3c3cccc(F)c3)nc12)N1CC(O)C1 [Example 32, (R)—N-(5-(2-(3-fluorophenyl)pyrrolidin-1-yl)pyrazolo[1,5-a]pyrimidin-3-yl)-3-hydroxyazetidine-1-carboxamide]
20 | 13.3 | O=C(Nc1cnn2ccc(N3CCC[C@@H]3c3cc(F)ccc3F)nc12)N1C[C@@H](O)[C@H](O)C1 [Example 15, (3R,4R)—N-(5-((R)-2-(2,5-difluorophenyl)pyrrolidin-1-yl)pyrazolo[1,5-a]pyrimidin-3-yl)-3,4-dihydroxypyrrolidine-1-carboxamide]
21 | 26.5 | O=C(Nc1cnn2ccc(N3CCC[C@@H]3c3cc(F)ccc3C(F)F)nc12)N1CC(O)C1 [Example 12, (R)—N-(5-(2-(2-(difluoromethyl)-5-fluorophenyl)pyrrolidin-1-yl)pyrazolo[1,5-a]pyrimidin-3-yl)-3-hydroxyazetidine-1-carboxamide]
22 | 41.7 | O=C(Nc1cnn2ccc(N3CCC[C@@H]3c3cc(F)ccc3Cl)nc12)N1CCOCC1 [Example 23, (R)—N-(5-(2-(2-chloro-5-fluorophenyl)pyrrolidin-1-yl)pyrazolo[1,5-a]pyrimidin-3-yl)morpholine-4-carboxamide]
23 | 20.7 | O=C(Nc1cnn2ccc(N3CCC[C@@H]3c3cc(F)ccc3F)nc12)N1CC(O)C1 [Example 1, (R)—N-(5-(2-(2,5-difluorophenyl)pyrrolidin-1-yl)pyrazolo[1,5-a]pyrimidin-3-yl)-3-hydroxyazetidine-1-carboxamide]
24 | 98 | CC1CN(C(=O)Nc2cnn3ccc(N4CCC[C@@H]4c4cc(F)ccc4F)nc23)CC(C)N1 (some centres unmarked) [Example 29]
25 | 5.7 | O=C(Nc1cnn2ccc(N3CCC[C@@H]3c3cc(F)ccc3C(F)(F)F)nc12)N1CC[C@@H](O)C1 [Example 85, (R)—N-(5-((R)-2-(5-fluoro-2-(trifluoromethyl)phenyl)pyrrolidin-1-yl)pyrazolo[1,5-a]pyrimidin-3-yl)-3-hydroxypyrrolidine-1-carboxamide]
26 | 19.7 | CC1(O)CN(C(=O)Nc2cnn3ccc(N4CCC[C@@H]4c4cc(F)ccc4F)nc23)C1 [Example 17, (R)—N-(5-(2-(2,5-difluorophenyl)pyrrolidin-1-yl)pyrazolo[1,5-a]pyrimidin-3-yl)-3-hydroxy-3-methylazetidine-1-carboxamide]
27 | 27.9 | COC1CN(C(=O)Nc2cnn3ccc(N4CCC[C@@H]4c4cc(F)ccc4Cl)nc23)C1 [Example 21, (R)—N-(5-(2-(2-chloro-5-fluorophenyl)pyrrolidin-1-yl)pyrazolo[1,5-a]pyrimidin-3-yl)-3-methoxyazetidine-1-carboxamide]
28 | 107 | CCN1CCN(C(=O)Nc2cnn3ccc(N4CCC[C@@H]4c4cc(F)ccc4F)nc23)CC1 [Example 27, (R)—N-(5-(2-(2,5-difluorophenyl)pyrrolidin-1-yl)pyrazolo[1,5-a]pyrimidin-3-yl)-4-ethylpiperazine-1-carboxamide]
29 | 12.8 | O=C(Nc1cnn2ccc(N3CCC[C@@H]3c3cc(F)ccc3F)nc12)C(=O)N1CC[C@H](O)C1 [Example 102, N-(5-((R)-2-(2,5-difluorophenyl)pyrrolidin-1-yl)pyrazolo[1,5-a]pyrimidin-3-yl)-2-((S)-3-hydroxypyrrolidin-1-yl)-2-oxoacetamide]
30 | 11.3 | COc1ccc(F)cc1[C@H]1CCCN1c1ccn2ncc(NC(=O)N3CC[C@H](O)C3)c2n1 [Example 90, (S)—N-(5-((R)-2-(5-fluoro-2-methoxyphenyl)pyrrolidin-1-yl)pyrazolo[1,5-a]pyrimidin-3-yl)-3-hydroxypyrrolidine-1-carboxamide]
31 | 20.3 | O=C(Nc1cnn2ccc(N3CCC[C@@H]3c3cc(F)ccc3F)nc12)[C@H]1CC[C@@H](O)C1 [Example 94, (1S,3R)—N-(5-((R)-2-(2,5-difluorophenyl)pyrrolidin-1-yl)pyrazolo[1,5-a]pyrimidin-3-yl)-3-hydroxycyclopentanecarboxamide]
32 | 171 | O=C(Nc1cnn2ccc(N3CCC[C@@H]3c3cc(F)cc(Cl)c3)nc12)N1CC(O)C1 [Example 11, (R)—N-(5-(2-(3-chloro-5-fluorophenyl)pyrrolidin-1-yl)pyrazolo[1,5-a]pyrimidin-3-yl)-3-hydroxyazetidine-1-carboxamide]
